Assay results taken from US4292319A, “Antiphlogistic pharmaceutical compositions and method of use” (Boehringer Ingelheim GmbH, priority 1977, dated 1981).
Structures can show the parent of a compound that is named as a salt. Where two headings read alike, the source gives them in different places.

Legend:
[1] = tested on: carrageenin-induced edema of the hind paw of the rat; experiment: Test for antiphlogistic effect against the carrageenin-induced edema of the hind paw of the rat; assay type: in vivo; conditions: rat; for ED35: Rattus norvegicus, po, 3 h, carrageenin edema; for Thickness of the paw (mean): 3 h after carrageenin
Experimental: The test was carried out in analogy to the above test for the kaolin-induced edema. However, the edema was induced according to the method of WINTER et al. [J. Pharmacol. 141, 369 (1963)] by subplantary injection of 0.05 ml of a 1% solution of carrageenin in an aqueous 0.85% solution of sodium chloride. […] Three hours after the provocation of the edema the measurement which provided the basis for the evaluation of an anti-exudative effect was carried out.
(§1) From the swelling values obtained by administration of different dosages of non-steroidal antiphlogistics with or without the addition of pirenzepine dihydrochloride, using a linear regression analysis according to LINDNER [Statistische Methoden, 4th Ed., pages 148-162, Birkhauser, Basel, Switzerland (1964)], the ED35 values of the antiphlogistics were calculated with the confidence limits according to FIELLER [Quart. J. Pharm. Pharmacol. 17, 117 (1944)], the ED35 being the dosage which reduces the swelling of the paws by 35% in comparison to the control animals.

stomach of the rat = experiment: Test for ulcerogenic effect on the stomach of the rat; assay type: in vivo, rat (Chbb:THOM); conditions: oral, 3 subsequent days
Experimental: (§2) (1) Test for ulcerogenic effect on the stomach of the rat
(§3) The test was carried out on male and female (1:1) Chbb:THOM-rats with a body weight between 130 to 150 gm at the beginning of the study.
(§4) The test substances (non-steroidal anti-phlogistics or mixtures of these antiphlogistics with pirenzepine dihydrochloride) were administered as triturations in 1% tylose (1 ml/100 gm animal) by way of an esophageal tube once a day on three successive days.
(§5) Four hours after the last administration (i.e. on the 3rd day) the animals were killed by an over-dose of ether. The stomachs wer dissected, cut along the great curvature and washed under flowing water for subsequent macroscopic evaluation.

[2] = as above; assay type: in vivo, rat (Chbb:THOM); conditions: in vivo, po, oral, 3 subsequent days, read-out: ED50-ulcer
Experimental: as §2, §3, §4, §5

[3] = tested on: kaolin-induced edema of the rat's hind paw; experiment: Test for antiphlogistic effect against the kaolin-induced edema of the rat's hind paw; assay type: in vivo, rat (Chbb:THOM); conditions: oral, rat; for ED35: Rattus norvegicus, po, 5 h, kaolin edema, read-out: ED35; for Thickness of the paw (mean): 5 h after kaolin
Experimental: (2) Test for antiphlogistic effect against the kaolin-induced edema of the rat's hind paw (tested substances: A, B, C and D)
The test was carried out on male Chbb:THOM-rats with a body weight between 125 and 150 gm. According to HILLEBRECHT [Arzneimittel-Forsch. 4, 607 (1954)], a subplantary injection of 0.05 ml of a 10% suspension of kaolin in an aqueous 0.85% sodium chloride solution in the hind paw was used for the provocation of the kaolin edema. The other hind paw was subplantarily injected with the same volume of an aqueous 0.85% sodium chloride solution.
The measurement of the thickness of the paws was carried out using the technique of DOEPFNER and […] [Int. Arch. Allergy appl. Immunol. 12, 89 (1958)] by way of the determination of the maximum sagittal diameter, using a measuring device with constant pressure, before and 5 hours after the provocation of the edema.
The test substances (the non-steroidal antiphlogistics or the mixture of non-steroidal antiphlogistics with pirenzepine dihydrochloride) were administered 30 minutes before provocation of the edema as a trituration in 1% tylose (1 ml/[…]) by way of an esophageal tube.
The diameter of the paw measured before the beginning of the test as well as the increase in diameter of the other paw caused by injection were subtracted from the diameter of the kaolin-treated paw, and this difference, being the real swelling value, was used for the further calculations.
as §1

For `O=C([O-])Cc1ccccc1Nc1c(Cl)cccc1Cl.[Na+]` [E, sodium [o-(2,6-dichloro-anilino)-phenyl]acetate], the ED35 ([1]; with A 400 mgm/kg) was 4.3 mg/kg, the ED35 ([1]; without A) was 5 mg/kg and the “Thickness of the paw (mean)” value ([1]; antiphlogistic 1.5 mgm/kg + A 400 mgm/kg, oral) was 209.5 10^-2 mm. For the same molecule, the “Thickness of the paw (mean)” value ([1]; antiphlogistic 1.5 mgm/kg, without A, oral) was 209.5 10^-2 mm, the “Thickness of the paw (mean)” value ([1]; antiphlogistic 3.0 mgm/kg + A 400 mgm/kg, oral) was 181.5 10^-2 mm and the “Thickness of the paw (mean)” value ([1]; antiphlogistic 3 mgm/kg, without A, oral) was 188.5 10^-2 mm. For the same molecule, the “Thickness of the paw (mean)” value ([1]; antiphlogistic 6.0 mgm/kg + A 400 mgm/kg, oral) was 162.5 10^-2 mm, the “Thickness of the paw (mean)” value ([1]; antiphlogistic 6 mgm/kg, without A, oral) was 170.0 10^-2 mm and the “Thickness of the paw (mean)” value ([1]; antiphlogistic 12.0 mgm/kg + A 400 mgm/kg, oral) was 148.5 10^-2 mm. The “Thickness of the paw (mean)” value ([1]; antiphlogistic 12 mgm/kg, without A, oral) was 154.0 10^-2 mm, the “Ratio of animals with ulcers” value (stomach of the rat; antiphlogistic 2 mgm/kg + A 200 mgm/kg) was 3/20 and the “Ratio of animals with ulcers” value (stomach of the rat; antiphlogistic 2 mgm/kg + A 400 mgm/kg) was 1/20. The “Ratio of animals with ulcers” value (stomach of the rat; antiphlogistic 2 mgm/kg, without A) was 5/20, the “Ratio of animals with ulcers” value (stomach of the rat; antiphlogistic 4 mgm/kg + A 200 mgm/kg) was 9/20 and the “Ratio of animals with ulcers” value (stomach of the rat; antiphlogistic 4 mgm/kg + A 400 mgm/kg) was 7/20. The “Ratio of animals with ulcers” value (stomach of the rat; antiphlogistic 4 mgm/kg, without A) was 14/20, the “Ratio of animals with ulcers” value (stomach of the rat; antiphlogistic 8 mgm/kg + A 200 mgm/kg) was 17/19 and the “Ratio of animals with ulcers” value (stomach of the rat; antiphlogistic 8 mgm/kg + A 400 mgm/kg) was 13/20. For the same molecule, the “Ratio of animals with ulcers” value (stomach of the rat; antiphlogistic 8 mgm/kg, without A) was 19/20, the “Ratio of animals with ulcers” value (stomach of the rat; antiphlogistic 16 mgm/kg + A 200 mgm/kg) was 20/20 and the “Ratio of animals with ulcers” value (stomach of the rat; antiphlogistic 16 mgm/kg + A 400 mgm/kg) was 19/20. The TD50 ([2]; with A 200 mgm/kg) was 4.05 mg/kg, the TD50 ([2]; with A 400 mgm/kg) was 5.63 mg/kg and the TD50 ([2]; without A) was 2.95 mg/kg.
For `COc1ccc2cc([C@H](C)C(=O)O)ccc2c1` [F, d-2-(6-methoxy-2-naphthyl)-propionic acid], the ED35 ([1]; with A 400 mgm/kg, oral, read-out: ED35) was 3 mg/kg, the ED35 ([1]; without A, oral, read-out: ED35) was 2.8 mg/kg and the “Thickness of the paw (mean)” value ([1]; antiphlogistic 2 mgm/kg + A 400 mgm/kg, oral) was 192.2 10^-2 mm. For the same molecule, the “Thickness of the paw (mean)” value ([1]; antiphlogistic 2 mgm/kg, without A, oral) was 188.5 10^-2 mm, the “Thickness of the paw (mean)” value ([1]; antiphlogistic 4 mgm/kg + A 400 mgm/kg, oral) was 168.5 10^-2 mm and the “Thickness of the paw (mean)” value ([1]; antiphlogistic 4 mgm/kg, without A, oral) was 157.5 10^-2 mm. For the same molecule, the “Thickness of the paw (mean)” value ([1]; antiphlogistic 8 mgm/kg + A 400 mgm/kg, oral) was 133.3 10^-2 mm and the “Thickness of the paw (mean)” value ([1]; antiphlogistic 8 mgm/kg, without A, oral) was 118.0 10^-2 mm.
In the case of `O=C(O)C=CC(O)c1ccc(-c2ccccc2F)cc1` (stereo not shown) [C, 4-[4-(2'-fluoro-biphenylyl)]-4-hydroxy-crotonic acid morpholine salt], the ED35 ([3]; with A 100 mgm/kg) was 17.6 mg/kg, the ED35 ([3]; without A) was 15.3 mg/kg and the “Thickness of the paw (mean)” value ([3]; antiphlogistic 6.25 mgm/kg + A 100 mgm/kg) was 215.6 10^-2 mm. For the same molecule, the “Thickness of the paw (mean)” value ([3]; antiphlogistic 6.25 mgm/kg, without A) was 203.9 10^-2 mm, the “Thickness of the paw (mean)” value ([3]; antiphlogistic 12.25 mgm/kg + A 100 mgm/kg) was 187.0 10^-2 mm and the “Thickness of the paw (mean)” value ([3]; antiphlogistic 12.5 mgm/kg, without A) was 179.5 10^-2 mm. The “Thickness of the paw (mean)” value ([3]; antiphlogistic 25 mgm/kg + A 100 mgm/kg) was 166.0 10^-2 mm, the “Thickness of the paw (mean)” value ([3]; antiphlogistic 25 mgm/kg, without A) was 164.3 10^-2 mm and the “Thickness of the paw (mean)” value ([3]; antiphlogistic 50 mgm/kg + A 100 mgm/kg) was 149.3 10^-2 mm. The “Thickness of the paw (mean)” value ([3]; antiphlogistic 50 mgm/kg, without A) was 138.0 10^-2 mm, the “Thickness of the paw (mean)” value ([3]; antiphlogistic 100 mgm/kg, without A) was 93.8 10^-2 mm and the “Ratio of animals with ulcers” value (stomach of the rat; antiphlogistic 52 mgm/kg, without A) was 5/12. For the same molecule, the “Ratio of animals with ulcers” value (stomach of the rat; antiphlogistic 62 mgm/kg + A 50 mgm/kg) was 4/15, the “Ratio of animals with ulcers” value (stomach of the rat; antiphlogistic 62 mgm/kg, without A) was 8/12 and the “Ratio of animals with ulcers” value (stomach of the rat; antiphlogistic 74 mgm/kg + A 50 mgm/kg) was 8/17. For the same molecule, the “Ratio of animals with ulcers” value (stomach of the rat; antiphlogistic 74 mgm/kg + A 100 mgm/kg) was 0/15, the “Ratio of animals with ulcers” value (stomach of the rat; antiphlogistic 74 mgm/kg, without A) was 10/12 and the “Ratio of animals with ulcers” value (stomach of the rat; antiphlogistic 88 mgm/kg + A 50 mgm/kg) was 9/17. The “Ratio of animals with ulcers” value (stomach of the rat; antiphlogistic 88 mgm/kg + A 100 mgm/kg) was 4/15, the “Ratio of animals with ulcers” value (stomach of the rat; antiphlogistic 106 mgm/kg + A 50 mgm/kg) was 11/17 and the “Ratio of animals with ulcers” value (stomach of the rat; antiphlogistic 106 mgm/kg + A 100 mgm/kg) was 3/15. The “Ratio of animals with ulcers” value (stomach of the rat; antiphlogistic 127 mgm/kg + A 100 mgm/kg) was 7/15 and the “Ratio of animals with ulcers” value (stomach of the rat; antiphlogistic 153 mgm/kg + A 100 mgm/kg) was 8/15.
